Assay results reported in PubChem BioAssay (NCI).
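Tested at 5 concentrations; 48 h exposure; 96-well plates; endpoints linearly interpolated, else capped at highest concentration. GI50 = concentration required for 50% inhibition of growth. TGI: total growth inhibition.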

Assays:
Experiment in all cases: NCI-60 cell line screen, 48 h
786-0 renal = test system: 786-0 renal
LOX IMVI melanoma = test system: LOX IMVI melanoma
MDA-MB-435 = test system: MDA-MB-435
OVCAR-4 ovarian = test system: OVCAR-4 ovarian
BT-549 breast = test system: BT-549 breast
MALME-3M melanoma = test system: MALME-3M melanoma
HCT-116 colon = test system: HCT-116 colon
T-47D breast = test system: T-47D breast
CAKI-1 renal = test system: CAKI-1 renal
KM12 colon = test system: KM12 colon
A498 renal = test system: A498 renal
U251 CNS = test system: U251 CNS
SR leukemia = test system: SR leukemia
SNB-19 CNS = test system: SNB-19 CNS
SK-MEL-2 melanoma = test system: SK-MEL-2 melanoma
ACHN renal = test system: ACHN renal
SK-MEL-28 melanoma = test system: SK-MEL-28 melanoma
NCI-H522 lung = test system: NCI-H522 lung
TK-10 renal = test system: TK-10 renal
NCI/ADR-RES ovarian = test system: NCI/ADR-RES ovarian
SN12C renal = test system: SN12C renal
HCT-15 colon = test system: HCT-15 colon
M14 melanoma = test system: M14 melanoma
SF-268 CNS = test system: SF-268 CNS
OVCAR-8 ovarian = test system: OVCAR-8 ovarian
SF-539 CNS = test system: SF-539 CNS
MOLT-4 leukemia = test system: MOLT-4 leukemia
HT29 colon = test system: HT29 colon
IGROV1 ovarian = test system: IGROV1 ovarian

C=C1C(=O)O[C@H]2[C@H]1CC/C(COC(=O)NCc1ccc(Cn3c(=O)sn(CCCC)c3=O)cc1)=C\CC[C@@]1(C)O[C@@H]21
GI50 (786-0 renal): 2000 nM
TGI (786-0 renal): 4.02 µM
GI50 (LOX IMVI melanoma): 1650 nM
TGI (LOX IMVI melanoma): 3.08 µM
GI50 (MDA-MB-435): 1650 nM
TGI (MDA-MB-435): 3.22 µM
GI50 (OVCAR-4 ovarian): 1520 nM
TGI (OVCAR-4 ovarian): 3.05 µM
GI50 (BT-549 breast): 1560 nM
TGI (BT-549 breast): 3.03 µM
GI50 (MALME-3M melanoma): 1600 nM
TGI (MALME-3M melanoma): 3.32 µM
GI50 (HCT-116 colon): 1360 nM
TGI (HCT-116 colon): 2780 nM
GI50 (T-47D breast): 2040 nM
TGI (T-47D breast): 4.83 µM
GI50 (CAKI-1 renal): 1640 nM
TGI (CAKI-1 renal): 3.24 µM
GI50 (KM12 colon): 14.8 µM
TGI (KM12 colon): 29.4 µM
GI50 (A498 renal): 3.28 µM
TGI (A498 renal): 14.1 µM
GI50 (U251 CNS): 4.15 µM
TGI (U251 CNS): 15.5 µM
GI50 (SR leukemia): 407 nM
TGI (SR leukemia): 5.39 µM
GI50 (SNB-19 CNS): 6.63 µM
TGI (SNB-19 CNS): 19.6 µM
GI50 (SK-MEL-2 melanoma): 4.52 µM
TGI (SK-MEL-2 melanoma): 17 µM
GI50 (ACHN renal): 1670 nM
TGI (ACHN renal): 3.08 µM
GI50 (SK-MEL-28 melanoma): 1800 nM
TGI (SK-MEL-28 melanoma): 3.36 µM
GI50 (NCI-H522 lung): 1190 nM
TGI (NCI-H522 lung): 2880 nM
GI50 (TK-10 renal): 1810 nM
TGI (TK-10 renal): 3.59 µM
GI50 (NCI/ADR-RES ovarian): 27.8 µM
TGI (NCI/ADR-RES ovarian): 97.9 µM
GI50 (SN12C renal): 1730 nM
TGI (SN12C renal): 3.93 µM
GI50 (HCT-15 colon): 2020 nM
TGI (HCT-15 colon): 3.76 µM
GI50 (M14 melanoma): 1450 nM
TGI (M14 melanoma): 2970 nM
GI50 (SF-268 CNS): 4.28 µM
TGI (SF-268 CNS): 17.2 µM
GI50 (OVCAR-8 ovarian): 3.64 µM
TGI (OVCAR-8 ovarian): 15.2 µM
GI50 (SF-539 CNS): 1680 nM
TGI (SF-539 CNS): 3.24 µM
GI50 (MOLT-4 leukemia): 1550 nM
TGI (MOLT-4 leukemia): 5.73 µM
GI50 (HT29 colon): 2080 nM
TGI (HT29 colon): 4.18 µM
GI50 (IGROV1 ovarian): 1830 nM
